For orientation: pIC50 means the IC50 on a negative log10 scale, so that one unit is a factor of ten. Low values mean a large IC50, high ones a small IC50.

Experimental findings from ChEMBL document CHEMBL2429810, “Heteroannelated and 7-deoxygenated goniofufurone mimics with antitumour activity: design, synthesis and preliminary SAR studies” (Bioorg Med Chem Lett, 2013) are described below.

pIC50: −log10 of the molar value.

In experiment [1] the test system is HL-60. The experiment is described as follows: Antiproliferative activity against human HL60 cells after 72 hrs by MTT assay. It is filed as functional, cell-based. The following applies: HL-60, 72 h. For orientation: Formazan colour is commonly taken as a measure of viable cells.
Experiment [2] relates to Raji. The experiment is described as follows: Ratio of doxorubicin IC50 to compound IC50 for human Raji cells. It is filed as functional.
The subject of experiment [3] is Raji. The experiment is described as follows: Antiproliferative activity against human Raji cells after 72 hrs by MTT assay. In kind it is functional, cell-based.
The test system of experiment [4] is K562. The experiment is described as follows: Antiproliferative activity against human K562 cells after 72 hrs by MTT assay. It is filed as functional, cell-based. As to conditions: K562, 72 h.
The subject of experiment [5] is Jurkat. The experiment is described as follows: Antiproliferative activity against human Jurkat cells after 72 hrs by MTT assay. In kind it is functional, cell-based.
Experiment [6] relates to MRC5. The experiment is described as follows: Antiproliferative activity against human MRC5 cells after 72 hrs by MTT assay. It is filed as cell-based. As to conditions: MRC5, 72 h.
Experiment [7] relates to HeLa. The experiment is described as follows: Antiproliferative activity against human HeLa cells after 72 hrs by MTT assay. It is filed as functional, cell-based.

Turning to `O=C1C[C@@H]2O[C@@H](Cc3ccccc3)[C@@H](O)[C@@H]2O1`, the negative logarithm of the IC50 (pIC50) in experiment [1] is 6.77; in experiment [3], 7.52; in experiment [4], 7.70; in experiment [5], 6.92; in experiment [6], less than 4.00; in experiment [7], 5.92. The “Ratio IC50” value in experiment [2] was 100.
`O=C1C[C@H]2O[C@H](Cc3ccccc3)[C@H](O)[C@H]2O1`: the pIC50 in experiment [6] is less than 4.00.
`O=C1C[C@@H]2O[C@H]3[C@H](c4ccccc4)c4ccccc4CO[C@H]3[C@@H]2O1`: the pIC50 was 4.93 in experiment [1]; 4.80 in experiment [3]; 5.92 in experiment [4]; 4.73 in experiment [5]; less than 4.00 in experiment [6]; 5.18 in experiment [7].
In the case of `O=C1C[C@H]2O[C@H](Cc3ccccc3)[C@H](OCc3ccccc3)[C@H]2O1`, the pIC50 in experiment [1] was 6.25; in experiment [3] it was 5.02; in experiment [4], 6.85; in experiment [5] it was 6.00; in experiment [6], less than 4.00; in experiment [7], 5.36.
On to `O=C1C[C@H]2O[C@@H]3[C@@H](c4ccccc4)c4ccccc4CO[C@@H]3[C@H]2O1`, for which the pIC50 is 6.11 in experiment [1]; 6.34 in experiment [3]; 5.84 in experiment [4]; 7.13 in experiment [5]; less than 4.00 in experiment [6]; less than 4.00 in experiment [7].
In the case of `O=C1C[C@H]2O[C@H]([C@H](O)c3ccccc3)[C@H](O)[C@H]2O1`, the negative logarithm of the IC50 (pIC50) in experiment [1] and in experiment [6] was less than 4.00 throughout.
Consider `Cc1ccccc1[C@H](c1ccccc1)[C@H]1O[C@@H]2CC(=O)O[C@@H]2[C@H]1O`, for which the pIC50 in experiment [1] is 4.93; in experiment [3], 5.25; in experiment [4], 5.81; in experiment [5] it was 4.67; in experiment [6] it was less than 4.00; in experiment [7] it was 4.94.
